Test results as given in publication PMC10401862, “A high-throughput dual system to screen polyphosphate kinase mutants for efficient ATP regeneration in L-theanine biocatalysis” (Biotechnology for Biofuels and Bioproducts, 2023).

Legend:
Format in all cases: biochemical
[1] = target: T1, EbPPK (Erysipelotrichaceae bacterium, UniProt P0DY74); test: coupled hexokinase / G6PD assay, […] nm; conditions: 100 mM Tris-HCl pH 8.0, 35 °C
T1 construct: gene DHS57_05705; synthesized gene expressed in E. coli BL21(DE3) from pXMJ-19, Ni-NTA purified
T1 sequence (P0DY74 1-298): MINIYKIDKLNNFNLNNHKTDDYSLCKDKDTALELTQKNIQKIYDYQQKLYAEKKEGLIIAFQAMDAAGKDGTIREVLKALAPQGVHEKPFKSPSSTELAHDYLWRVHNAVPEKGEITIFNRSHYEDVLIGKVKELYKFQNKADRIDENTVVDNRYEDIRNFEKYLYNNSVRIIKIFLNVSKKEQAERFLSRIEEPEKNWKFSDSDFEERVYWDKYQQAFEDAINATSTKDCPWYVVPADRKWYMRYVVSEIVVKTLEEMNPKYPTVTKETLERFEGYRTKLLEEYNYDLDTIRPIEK

[2] = target: T2, PaPPK2II (Pseudomonas aeruginosa, UniProt Q9I154); test: coupled hexokinase / G6PD assay, […] nm; conditions: 100 mM Tris-HCl pH 8.0, 35 °C, 10 mM ADP, 50 mM polyP6, 25 mM MgCl2
T2 construct: gene PA2428; expressed in E. coli BL21(DE3) from pET-28a, Ni-NTA purified
T2 sequence (Q9I154 1-304): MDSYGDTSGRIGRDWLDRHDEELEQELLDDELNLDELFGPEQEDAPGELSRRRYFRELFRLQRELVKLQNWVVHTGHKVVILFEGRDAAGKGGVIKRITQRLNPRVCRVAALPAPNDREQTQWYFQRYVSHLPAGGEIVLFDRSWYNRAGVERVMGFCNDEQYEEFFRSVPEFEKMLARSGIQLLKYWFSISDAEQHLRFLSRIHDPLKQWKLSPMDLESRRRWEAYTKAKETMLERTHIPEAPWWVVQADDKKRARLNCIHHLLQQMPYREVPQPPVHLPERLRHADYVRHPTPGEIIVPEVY

[3] = target: T3, PaPPK2III (Pseudomonas aeruginosa, UniProt Q9HYF1); test: coupled hexokinase / G6PD assay, […] nm; conditions: 100 mM Tris-HCl pH 8.0, 35 °C, 10 mM ADP, 50 mM polyP6, 25 mM MgCl2
T3 construct: gene PA3455; expressed in E. coli BL21(DE3) from pET-28a, Ni-NTA purified
T3 sequence (Q9HYF1 1-496): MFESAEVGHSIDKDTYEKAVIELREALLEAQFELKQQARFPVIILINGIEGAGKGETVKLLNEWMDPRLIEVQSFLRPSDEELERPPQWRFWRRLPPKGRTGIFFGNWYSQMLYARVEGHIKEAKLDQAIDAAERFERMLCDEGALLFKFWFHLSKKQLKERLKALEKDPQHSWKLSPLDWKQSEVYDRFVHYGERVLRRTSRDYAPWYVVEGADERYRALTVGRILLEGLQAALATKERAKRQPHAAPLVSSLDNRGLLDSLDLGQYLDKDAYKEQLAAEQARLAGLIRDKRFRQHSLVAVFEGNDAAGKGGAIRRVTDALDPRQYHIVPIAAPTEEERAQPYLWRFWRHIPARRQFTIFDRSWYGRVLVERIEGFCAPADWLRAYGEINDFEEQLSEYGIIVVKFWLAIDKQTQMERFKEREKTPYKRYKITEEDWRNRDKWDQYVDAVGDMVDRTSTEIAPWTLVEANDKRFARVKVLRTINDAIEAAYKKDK

[4] = target: T4, GS (Corynebacterium glutamicum, UniProt H7C697); test: L-glutamine production, HPLC with OPA derivatization; conditions: Tris-HCl pH 8.0, 37 °C, 100 mM (NH4)2SO4, 150 mM ATP, 50 mM MgCl2
T4 construct: gene glnA; expressed in E. coli BL21(DE3), Ni-NTA purified
T4 sequence (H7C697 1-477): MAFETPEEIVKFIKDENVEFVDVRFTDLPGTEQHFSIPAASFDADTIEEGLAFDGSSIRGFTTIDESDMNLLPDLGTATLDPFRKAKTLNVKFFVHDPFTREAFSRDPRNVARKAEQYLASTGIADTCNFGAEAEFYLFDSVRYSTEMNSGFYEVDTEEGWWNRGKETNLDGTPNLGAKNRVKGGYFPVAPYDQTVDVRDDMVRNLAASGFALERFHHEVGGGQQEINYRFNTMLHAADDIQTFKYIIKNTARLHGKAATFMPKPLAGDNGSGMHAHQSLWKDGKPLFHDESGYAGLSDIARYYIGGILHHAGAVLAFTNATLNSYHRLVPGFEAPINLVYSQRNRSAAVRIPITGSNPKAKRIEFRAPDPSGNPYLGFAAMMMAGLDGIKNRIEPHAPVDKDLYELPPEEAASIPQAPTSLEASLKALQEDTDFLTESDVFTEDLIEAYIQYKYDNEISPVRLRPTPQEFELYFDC

[5] = target: T5, ChPPK (Cytophaga hutchinsonii, UniProt A0A6N4SMB5, K103E); test: coupled hexokinase / G6PD assay, […] nm, double reciprocal plot; conditions: 100 mM Tris-HCl pH 8.0, 35 °C, MgCl2; polyP6 1 to 7.5 mM, ADP as co-substrate
T5 construct: gene CHU_0107; synthesized gene expressed in E. coli BL21(DE3) from pXMJ-19, Ni-NTA purified
T5 sequence (A0A6N4SMB5 entry or part of it K103E): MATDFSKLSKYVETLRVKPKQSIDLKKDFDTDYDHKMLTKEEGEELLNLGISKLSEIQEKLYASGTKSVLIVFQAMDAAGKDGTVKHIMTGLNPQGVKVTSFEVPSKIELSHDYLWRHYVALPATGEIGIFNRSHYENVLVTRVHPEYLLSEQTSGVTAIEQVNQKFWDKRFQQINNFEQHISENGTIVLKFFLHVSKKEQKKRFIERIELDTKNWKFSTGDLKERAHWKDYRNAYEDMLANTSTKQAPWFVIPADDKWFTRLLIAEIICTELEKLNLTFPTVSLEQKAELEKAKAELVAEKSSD

[6] = target: T6, ChPPK (Cytophaga hutchinsonii, UniProt A0A6N4SMB5); test: as above; conditions: 100 mM Tris-HCl pH 8.0, 35 °C, MgCl2; polyP6 1 to 7.5 mM, ADP as co-substrate
T6 construct: gene CHU_0107; synthesized gene expressed in E. coli BL21(DE3) from pXMJ-19, Ni-NTA purified
T6 sequence (A0A6N4SMB5 1-305): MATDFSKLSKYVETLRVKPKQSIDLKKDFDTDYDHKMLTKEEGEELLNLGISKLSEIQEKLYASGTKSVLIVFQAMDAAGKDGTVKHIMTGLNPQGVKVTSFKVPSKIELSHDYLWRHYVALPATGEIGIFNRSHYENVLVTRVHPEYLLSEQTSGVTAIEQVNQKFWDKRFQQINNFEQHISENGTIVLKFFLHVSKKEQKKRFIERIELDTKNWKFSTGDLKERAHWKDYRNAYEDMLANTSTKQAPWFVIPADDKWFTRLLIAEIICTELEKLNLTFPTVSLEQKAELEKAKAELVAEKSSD

[7] = target: T7, ChPPK (Cytophaga hutchinsonii, UniProt A0A6N4SMB5, D82N); test: as above; conditions: 100 mM Tris-HCl pH 8.0, 35 °C, MgCl2; polyP6 1 to 7.5 mM, ADP as co-substrate
T7 construct: gene CHU_0107; synthesized gene expressed in E. coli BL21(DE3) from pXMJ-19, Ni-NTA purified
T7 sequence (A0A6N4SMB5 entry or part of it D82N): as the sequence (A0A6N4SMB5 entry or part of it K103E) above, with D82N, E103K counted along it

Compound: Nc1ncnc2c1ncn2[C@@H]1O[C@H](COP(=O)(O)O)[C@@H](O)[C@H]1O [AMP]
- coupled hexokinase / G6PD assay, 340 nm ([1]; 10 mM AMP, polyP6, 25 mM MgCl2): EbPPK was capable of the best catalytic efficiency for converting AMP

Compound: Nc1ncnc2c1ncn2[C@@H]1O[C@H](COP(=O)(O)OP(=O)(O)O)[C@@H](O)[C@H]1O [ADP]
- coupled hexokinase / G6PD assay, 340 nm ([1]; 10 mM ADP, 50 mM polyP6, 25 mM MgCl2): polyP3, polyP6 and polyPn were carried out to show the specific activities
- coupled hexokinase / G6PD assay, 340 nm [2]: the specific activities of the seven PPK enzymes
- coupled hexokinase / G6PD assay, 340 nm [3]: the specific activities of the seven PPK enzymes

Compound: N[C@@H](CCC(=O)O)C(=O)O [L-glutamate]
- L-glutamine production, HPLC with OPA derivatization [4]: We performed glutamine production from glutamate with GS enzyme

Compound: polyP6
- Km [5]: 2240 ± 20 µM
- Km [6]: 2300 ± 20 µM
- Km [7]: 2120 ± 10 µM
